Patent publication US10294202B2, “Pyrrolidinones as herbicides” (FMC Corporation, priority 2013, dated 2019)

Experiments:
[1] = test system: kochia; experiment: Test A pre-/postemergence herbicide test; type: in vivo, Kochia scoparia; conditions: for Plant response rating, Kochia: 0 to 100 scale
In short: (§1)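 Visual 0–100 ratings (100 = complete control) made about 10 days after treatment, greenhouse-held plants compared with untreated controls. Treatments: postemergence sprays on one- to two-leaf plants (2–10 cm tall) and preemergence directed soil sprays after planting in loam–sand, chemicals formulated in non-phytotoxic solvent containing surfactant.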

[2] = test system: blackgrass; experiment: Test A postemergence herbicide test; type: in vivo, Alopecurus myosuroides; conditions: for Plant response rating, Blackgrass: 125 g ai/ha, 0 to 100 scale, 0 is no effect, 100 is complete control; for Blackgrass plant response rating (0 to 100 scale, 0 is no effect, 100 is complete control): 500 g ai/ha
In short: (§2)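 Ratings compare treated with untreated plants roughly 10 days after a postemergence application made at the one- to two-leaf stage. Scoring uses 0–100, where 0 means no effect and 100 complete control.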

[3] = test system: ryegrass, Italian; experiment: Test A pre-/postemergence herbicide test; type: in vivo, Lolium multiflorum; conditions: for Plant response rating, Ryegrass, Italian: 0 to 100 scale
In short: as §1

[4] = test system: giant foxtail; experiment: Test A pre-/postemergence herbicide test; type: in vivo, Setaria faberii; conditions: for Plant response rating, Foxtail, Giant: 0 to 100 scale
In short: as §1

[5] = test system: barnyardgrass; experiment: Test B flooded paddy test; type: in vivo, Echinochloa crus-galli; conditions: 500 g ai/ha, Flood; scale of 0 to 100 where 0 is no effect and 100 is complete control
In short: (§3)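 Visual ratings from 0, meaning no effect, up to 100, meaning complete control, were made by comparison with untreated controls 13 to 15 days after treatment. Test compounds went straight into floodwater standing 3 cm over the soil of pots holding 2-leaf seedlings.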

[6] = test system: barnyardgrass; experiment: Test A pre-/postemergence herbicide test; type: in vivo, Echinochloa crus-galli; conditions: for Plant response rating, Barnyardgrass: 0 to 100 scale
In short: as §1

[7] = test system: wheat; experiment: Test A pre-/postemergence herbicide test; type: in vivo, Triticum aestivum; conditions: Postemergence; for Plant response rating, Wheat: 125 g ai/ha, 0 to 100 scale, 0 is no effect, 100 is complete control; for Wheat plant response rating (0 to 100 scale, 0 is no effect, 100 is complete control): 500 g ai/ha
In short: as §1

[8] = test system: galium; experiment: Test A postemergence herbicide test; type: in vivo, Galium aparine; conditions: for Plant response rating, Galium: 125 g ai/ha, 0 to 100 scale, 0 is no effect, 100 is complete control; for Galium plant response rating (0 to 100 scale, 0 is no effect, 100 is complete control): 500 g ai/ha
In short: as §2

[9] = test system: corn; experiment: Test A pre-/postemergence herbicide test; type: in vivo, Zea mays; conditions: Postemergence; for Plant response rating, Corn: 125 g ai/ha, 0 to 100 scale, 0 is no effect, 100 is complete control; for Corn plant response rating (0 to 100 scale, 0 is no effect, 100 is complete control): 500 g ai/ha
In short: as §1

[10] = test system: pigweed; experiment: Test A pre-/postemergence herbicide test; type: in vivo, Amaranthus retroflexus; conditions: for Plant response rating, Pigweed: 0 to 100 scale
In short: as §1

[11] = test system: sedge, umbrella; experiment: Test B flooded paddy test; type: in vivo, Cyperus difformis; conditions: 500 g ai/ha, Flood; scale of 0 to 100 where 0 is no effect and 100 is complete control
In short: as §3

[12] = test system: ducksalad; experiment: Test B flooded paddy test; type: in vivo, Heteranthera limosa; conditions: 500 g ai/ha, Flood; scale of 0 to 100 where 0 is no effect and 100 is complete control
In short: as §3

[13] = test system: ragweed; experiment: Test A pre-/postemergence herbicide test; type: in vivo, Ambrosia elatior; conditions: for Plant response rating, Ragweed: 0 to 100 scale
In short: as §1

[14] = test system: rice; experiment: Test B flooded paddy test; type: in vivo, Oryza sativa; conditions: 500 g ai/ha, Flood; scale of 0 to 100 where 0 is no effect and 100 is complete control
In short: as §3

[15] = 125 g ai/ha, visual rating, 0 no effect, 100 complete control, approximately 10 days, preemergence
[16] = Postemergence, 125 g ai/ha, 0 is no effect, 100 is complete control
[17] = preemergence, 500 g ai/ha, 0 is no effect and 100 is complete control

Row | Structure (SMILES) | Plant response rating, Kochia [1, 15] | Plant response rating, Kochia [1, 16] | Kochia plant response rating (0 to 100 scale, 0 is no effect, 100 is complete control) ([1]; Postemergence, 500 g ai/ha) | Plant response rating, Kochia [1, 17] | Plant response rating, Blackgrass [2] | Blackgrass plant response rating (0 to 100 scale, 0 is no effect, 100 is complete control) [2] | Plant response rating, Ryegrass, Italian [3, 15] | Plant response rating, Ryegrass, Italian [3, 16] | Ryegrass, Italian plant response rating (0 to 100 scale, 0 is no effect, 100 is complete control) ([3]; Postemergence, 500 g ai/ha) | Plant response rating, Ryegrass, Italian [3, 17] | Plant response rating, Foxtail, Giant [4, 15] | Plant response rating, Foxtail, Giant [4, 16] | Foxtail, Giant plant response rating (0 to 100 scale, 0 is no effect, 100 is complete control) ([4]; Postemergence, 500 g ai/ha) | Plant response rating, Foxtail, Giant [4, 17] | Plant response rating, Barnyardgrass [5] | Plant response rating, Barnyardgrass [6, 15] | Plant response rating, Barnyardgrass [6, 16] | Barnyardgrass plant response rating (0 to 100 scale, 0 is no effect, 100 is complete control) ([6]; Postemergence, 500 g ai/ha) | Plant response rating, Barnyardgrass [6, 17] | Plant response rating, Wheat [7] | further results
1 | O=C1NCC(c2ccc(Cl)cc2)C1C(=O)Nc1ccccc1Cl (stereo not drawn) [Compound 220] | 0 | 0 | 40 | 40 | 0 | 40 | 0 | 0 | 20 | 30 | 80 | 50 | 80 | 90 | 0 | 30 | 40 | 80 | 80 | 0 | Wheat plant response rating (0 to 100 scale, 0 is no effect, 100 is complete control) [7]: 20; Plant response rating, Galium [8]: 0; Galium plant response rating (0 to 100 scale, 0 is no effect, 100 is complete control) [8]: 30; Plant response rating, Corn [9]: 0; Corn plant response rating (0 to 100 scale, 0 is no effect, 100 is complete control) [9]: 20; Plant response rating, Pigweed [10, 15]: 0; Plant response rating, Pigweed [10, 16]: 0; Pigweed plant response rating (0 to 100 scale, 0 is no effect, 100 is complete control) ([10]; Postemergence, 500 g ai/ha): 0; Plant response rating, Pigweed [10, 17]: 20; Plant response rating, Sedge, Umbrella [11]: 0; Plant response rating, Ducksalad [12]: 100; Plant response rating, Ragweed [13, 15]: 0; Plant response rating, Ragweed [13, 16]: 0; Ragweed plant response rating (0 to 100 scale, 0 is no effect, 100 is complete control) ([13]; Postemergence, 500 g ai/ha): 0; Plant response rating, Ragweed [13, 17]: 0; Plant response rating, Rice [14]: 0
2 | O=C1NCC(c2ccc(Cl)cc2)C1C(=O)Nc1cccc(Cl)c1Cl (stereo not drawn) [Compound 221] | 0 | 0 | 0 | 0 | 0 | 0 | 0 | 0 | 0 | 0 | 60 | 0 | 30 | 80 | 0 | 0 | 0 | 0 | 0 | 0 | Wheat plant response rating (0 to 100 scale, 0 is no effect, 100 is complete control) [7]: 0; Plant response rating, Galium [8]: 0; Galium plant response rating (0 to 100 scale, 0 is no effect, 100 is complete control) [8]: 0; Plant response rating, Corn [9]: 0; Corn plant response rating (0 to 100 scale, 0 is no effect, 100 is complete control) [9]: 0; Plant response rating, Pigweed [10, 15]: 0; Plant response rating, Pigweed [10, 16]: 0; Pigweed plant response rating (0 to 100 scale, 0 is no effect, 100 is complete control) ([10]; Postemergence, 500 g ai/ha): 0; Plant response rating, Pigweed [10, 17]: 0; Plant response rating, Sedge, Umbrella [11]: 0; Plant response rating, Ducksalad [12]: 0; Plant response rating, Ragweed [13, 15]: 0; Plant response rating, Ragweed [13, 16]: 0; Ragweed plant response rating (0 to 100 scale, 0 is no effect, 100 is complete control) ([13]; Postemergence, 500 g ai/ha): 0; Plant response rating, Ragweed [13, 17]: 0; Plant response rating, Rice [14]: 0
3 | O=C1NCC(c2cccc(OC(F)F)c2)C1C(=O)Nc1ccccc1C(F)(F)F (stereo not drawn) [Compound 222] | 0 | 0 | 40 | 50 | 30 | 60 | 20 | 20 | 30 | 50 | 90 | 80 | 90 | 90 | 60 | 70 | 70 | 90 | 90 | 20 | Wheat plant response rating (0 to 100 scale, 0 is no effect, 100 is complete control) [7]: 30; Plant response rating, Galium [8]: 30; Galium plant response rating (0 to 100 scale, 0 is no effect, 100 is complete control) [8]: 60; Plant response rating, Corn [9]: 20; Corn plant response rating (0 to 100 scale, 0 is no effect, 100 is complete control) [9]: 60; Plant response rating, Pigweed [10, 15]: 0; Plant response rating, Pigweed [10, 16]: 0; Pigweed plant response rating (0 to 100 scale, 0 is no effect, 100 is complete control) ([10]; Postemergence, 500 g ai/ha): 20; Plant response rating, Pigweed [10, 17]: 30; Plant response rating, Sedge, Umbrella [11]: 0; Plant response rating, Ducksalad [12]: 100; Plant response rating, Ragweed [13, 15]: 0; Plant response rating, Ragweed [13, 16]: 0; Ragweed plant response rating (0 to 100 scale, 0 is no effect, 100 is complete control) ([13]; Postemergence, 500 g ai/ha): 40; Plant response rating, Ragweed [13, 17]: 20; Plant response rating, Rice [14]: 0
4 | O=C1NCC(c2ccc(OC(F)F)cc2)C1C(=O)Nc1ccccc1Br (stereo not drawn) [Compound 225] | 0 | 0 | 0 | 30 | 0 | 30 | 0 | 0 | 0 | 40 | 80 | 40 | 70 | 90 | 0 | 20 | 30 | 60 | 30 | 0 | Wheat plant response rating (0 to 100 scale, 0 is no effect, 100 is complete control) [7]: 20; Plant response rating, Galium [8]: 20; Galium plant response rating (0 to 100 scale, 0 is no effect, 100 is complete control) [8]: 30; Plant response rating, Corn [9]: 0; Corn plant response rating (0 to 100 scale, 0 is no effect, 100 is complete control) [9]: 20; Plant response rating, Pigweed [10, 15]: 0; Plant response rating, Pigweed [10, 16]: 0; Pigweed plant response rating (0 to 100 scale, 0 is no effect, 100 is complete control) ([10]; Postemergence, 500 g ai/ha): 0; Plant response rating, Pigweed [10, 17]: 0; Plant response rating, Sedge, Umbrella [11]: 0; Plant response rating, Ducksalad [12]: 90; Plant response rating, Ragweed [13, 15]: 0; Plant response rating, Ragweed [13, 16]: 0; Ragweed plant response rating (0 to 100 scale, 0 is no effect, 100 is complete control) ([13]; Postemergence, 500 g ai/ha): 0; Plant response rating, Ragweed [13, 17]: 0; Plant response rating, Rice [14]: 0
5 | O=C1NCC(c2ccc(OC(F)F)cc2)C1C(=O)Nc1ccccc1Cl (stereo not drawn) [Compound 226] | 0 | 30 | 50 | 30 | 20 | 30 | 0 | 0 | 20 | 20 | 70 | 70 | 80 | 90 | 0 | 50 | 30 | 80 | 90 | 0 | Wheat plant response rating (0 to 100 scale, 0 is no effect, 100 is complete control) [7]: 0; Plant response rating, Galium [8]: 20; Galium plant response rating (0 to 100 scale, 0 is no effect, 100 is complete control) [8]: 20; Plant response rating, Corn [9]: 0; Corn plant response rating (0 to 100 scale, 0 is no effect, 100 is complete control) [9]: 0; Plant response rating, Pigweed [10, 15]: 0; Plant response rating, Pigweed [10, 16]: 0; Pigweed plant response rating (0 to 100 scale, 0 is no effect, 100 is complete control) ([10]; Postemergence, 500 g ai/ha): 0; Plant response rating, Pigweed [10, 17]: 30; Plant response rating, Sedge, Umbrella [11]: 0; Plant response rating, Ducksalad [12]: 100; Plant response rating, Ragweed [13, 15]: 0; Plant response rating, Ragweed [13, 16]: 0; Ragweed plant response rating (0 to 100 scale, 0 is no effect, 100 is complete control) ([13]; Postemergence, 500 g ai/ha): 0; Plant response rating, Ragweed [13, 17]: 0; Plant response rating, Rice [14]: 0
